{"source": "ChEMBL document CHEMBL5375986", "about": "“Discovery of Lead 2-Thiazolylhydrazones with Broad-Spectrum and Potent Antifungal Activity” (J Med Chem, 2023)", "key": {"[1]": {"assay": "Antifungal activity against Cryptococcus gattii ATCC 24065 assessed as inhibition of fungal growth incubated for 24 to 48 hrs by CLSI protocol based broth microdilution method", "assay_type": "functional, Cryptococcus gattii VGI", "details": "time 24-48 hrs"}, "Candida tropicalis": {"system": "Candida tropicalis", "assay": "Antifungal activity against Candida tropicalis ATCC 750 assessed as inhibition of fungal growth incubated for 24 to 48 hrs by CLSI protocol based broth microdilution method", "assay_type": "functional", "details": "time 24-48 hrs"}, "Cryptococcus neoformans [2]": {"system": "Cryptococcus neoformans", "assay": "Antifungal activity against Cryptococcus neoformans H99 infected in Tenebrio molitor larvae assessed as survival rate of larvae at 80 microg/ml measured after 24 hrs", "assay_type": "functional"}, "[3]": {"assay": "Apparent permeability across basolateral to apical side in human Caco-2 cells measured after 30 to 180 mins by HPLC-MS analysis", "assay_type": "ADME, cell-based", "details": "time 30-180 min"}, "Cryptococcus neoformans [4]": {"system": "Cryptococcus neoformans", "assay": "Antifungal activity against Cryptococcus neoformans ATCC 24067 assessed as inhibition of fungal growth incubated for 24 to 48 hrs by CLSI based broth microdilution method", "assay_type": "functional", "details": "time 24-48 hrs"}, "Candida parapsilosis": {"system": "Candida parapsilosis", "assay": "Antifungal activity against Candida parapsilosis ATCC 22019 assessed as inhibition of fungal growth incubated for 24 to 48 hrs by CLSI protocol based broth microdilution method", "assay_type": "functional", "details": "Lodderomyces parapsilosis, time 24-48 hrs"}, "[Candida] auris": {"system": "[Candida] auris", "assay": "Antifungal activity against Candida auris COLO 01 assessed as inhibition of fungal growth incubated for 24 to 48 hrs by CLSI protocol based broth microdilution method", "assay_type": "functional", "details": "Candidozyma auris, time 24-48 hrs"}, "Caco-2": {"system": "Caco-2", "assay": "Cytotoxicity against human Caco-2 cells assessed as reduction in cell viability at 10 to 40 microg/ml measured upto 12 hrs by MTT assay", "assay_type": "functional", "details": "dose 10-40 µg/ml, at 10 to 40 µg/mL"}, "[5]": {"assay": "Apparent permeability across apical to basolateral side in human Caco-2 cells measured after 30 to 180 mins by HPLC-MS analysis", "assay_type": "ADME, cell-based", "details": "time 30-180 min"}, "Nakaseomyces glabratus": {"system": "Nakaseomyces glabratus", "assay": "Antifungal activity against Candida glabrata ATCC 2001 assessed as inhibition of fungal growth incubated for 24 to 48 hrs by CLSI protocol based broth microdilution method", "assay_type": "functional", "details": "time 24-48 hrs"}, "[6]": {"assay": "Efflux ratio of apparent permeability across basolateral to apical over apical to basolateral side in human Caco-2 cells measured after 30 to 180 mins by HPLC-MS analysis", "assay_type": "ADME, cell-based", "details": "time 30-180 min"}, "Candida albicans": {"system": "Candida albicans", "assay": "Antifungal activity against Candida albicans SC5314 assessed as inhibition of fungal growth incubated for 24 to 48 hrs by CLSI protocol based broth microdilution method", "assay_type": "functional", "details": "time 24-48 hrs"}, "Pichia kudriavzevii": {"system": "Pichia kudriavzevii", "assay": "Antifungal activity against Candida krusei ATCC 20298 assessed as inhibition of fungal growth incubated for 24 to 48 hrs by CLSI protocol based broth microdilution method", "assay_type": "functional", "details": "time 24-48 hrs"}, "[7]": {"assay": "Cytotoxicity against human PBMC cells assessed as inhibition of cell growth incubated for 24 to 48 hrs by MTT assay", "assay_type": "toxicity, cell-based"}}, "data": [{"smiles": "CCOC(=O)Cc1csc(N/N=C(\\C)CCC(=O)O)n1", "values": [{"measurement": "MIC", "setting": "[1]", "result": 3.2, "unit": "µM"}, {"measurement": "MIC", "setting": "Candida tropicalis", "result": 0.8, "unit": "µM"}, {"measurement": "survival at 80 µg/mL", "setting": "Cryptococcus neoformans [2]", "result": 63, "unit": "%"}, {"measurement": "Papp B→A", "setting": "[3]", "result": 52.6, "unit": "nm/s"}, {"measurement": "MIC", "setting": "Cryptococcus neoformans [4]", "result": 3.2, "unit": "µM"}, {"measurement": "MIC", "setting": "Candida parapsilosis", "result": 1.6, "unit": "µM"}, {"measurement": "MIC", "setting": "[Candida] auris", "result": 1.6, "unit": "µM"}, {"measurement": "Activity", "setting": "Caco-2", "result": ">70", "unit": "%"}, {"measurement": "Papp A→B", "setting": "[5]", "result": 14.7, "unit": "nm/s"}, {"measurement": "MIC", "setting": "Nakaseomyces glabratus", "result": 52.2, "unit": "µM"}, {"measurement": "efflux ratio", "setting": "[6]", "result": 3.58}, {"measurement": "MIC", "setting": "Candida albicans", "result": 3.2, "unit": "µM"}, {"measurement": "MIC", "setting": "Pichia kudriavzevii", "result": 0.8, "unit": "µM"}, {"measurement": "IC50", "setting": "[7]", "result": "> 500", "unit": "µM"}]}]}
